Laboratory results published in patent US20230218688A1 (Zhejiang Chinese Medical University, priority 2022, published 2023).

Key:
[1] = system: Lactobacillus helveticus ZJUIDS12; assay: Antibiotic susceptibility of Lactobacillus helveticus ZJUIDS12 (susceptibility paper, inhibition zone); assay type: cell-based; parameters: key to Susceptive type: S: sensitive; I: intermediate; R: insensitive; settings: according to CLSI 2017
[2] = system: Helicobacter pylori ATCC43504; assay: Growth inhibition experiment on Helicobacter pylori; assay type: cell-based

Molecule | Susceptive type [1] | susceptibility of Lactobacillus helveticus ZJUIDS12 to the antibiotic (in words) [1] | Inhibition rates to Helicobacter pylori (%) ([2]; Fermentation supernatant) | Inhibition rates to Helicobacter pylori (%) ([2]; Suspension)
NCC[C@H](O)C(=O)N[C@@H]1C[C@H](N)[C@@H](O[C@H]2O[C@H](CN)[C@@H](O)[C@H](O)[C@H]2O)[C@H](O)[C@H]1O[C@H]1O[C@H](CO)[C@@H](O)[C@H](N)[C@H]1O [Amikacin (AK), Amikacin] | S | sensitive | – | –
CC1(C)S[C@@H]2[C@H](NC(=O)[C@H](N)c3ccccc3)C(=O)N2[C@H]1C(=O)O [Ampicillin (AM), Ampicillin] | S | sensitive | – | –
Cc1nnc(SCC2=C(C(=O)O)N3C(=O)[C@@H](NC(=O)Cn4cnnn4)[C@H]3SC2)s1 [Cefazolin(CZ), Cefazolin] | S | sensitive | – | –
O=C(N[C@H](CO)[C@H](O)c1ccc([N+](=O)[O-])cc1)C(Cl)Cl [Chloramphenicol (C), Chloramphenicol] | S | sensitive | – | –
CC[C@H]1OC(=O)[C@H](C)[C@@H](O[C@H]2C[C@@](C)(OC)[C@@H](O)[C@H](C)O2)[C@H](C)[C@@H](O[C@@H]2O[C@H](C)C[C@H](N(C)C)[C@H]2O)[C@](C)(O)C[C@@H](C)C(=O)[C@H](C)[C@@H](O)[C@]1(C)O [Erythromycin (E), Erythromycin] | S | sensitive | – | –
CCn1cc(C(=O)O)c(=O)c2cc(F)c(N3CCNCC3)cc21 [Norfloxacin (NOR), Norfloxacin] | S | sensitive | – | –
CC1(C)S[C@@H]2[C@H](NC(=O)Cc3ccccc3)C(=O)N2[C@H]1C(=O)O [Penicillin G(P), Penicillin G] | S | sensitive | – | –
Cc1ncc([N+](=O)[O-])n1CCO [Positive control, metronidazole] | – | – | 100 | 100
Cc1cc(NS(=O)(=O)c2ccc(N)cc2)no1 [Sulfamethoxazole (SXT), Sulfamethoxazole] | R | insensitive | – | –
Gentamicin [Gentamicin (GM)] | I | intermediate | – | –
